Assay results: publication PMC4761407 (ACS Chemical Biology, 2015)

Biological target: CatSper channel complex (Homo sapiens, UniProt Q7RTX7+Q86XQ3+Q8NEC5+Q96P56)
Test: whole-cell patch clamp:[…] inhibits sirenin-induced ICatSper
Type: cell-based

Sequence of CatSper channel complex (Q8NEC5 whole entry): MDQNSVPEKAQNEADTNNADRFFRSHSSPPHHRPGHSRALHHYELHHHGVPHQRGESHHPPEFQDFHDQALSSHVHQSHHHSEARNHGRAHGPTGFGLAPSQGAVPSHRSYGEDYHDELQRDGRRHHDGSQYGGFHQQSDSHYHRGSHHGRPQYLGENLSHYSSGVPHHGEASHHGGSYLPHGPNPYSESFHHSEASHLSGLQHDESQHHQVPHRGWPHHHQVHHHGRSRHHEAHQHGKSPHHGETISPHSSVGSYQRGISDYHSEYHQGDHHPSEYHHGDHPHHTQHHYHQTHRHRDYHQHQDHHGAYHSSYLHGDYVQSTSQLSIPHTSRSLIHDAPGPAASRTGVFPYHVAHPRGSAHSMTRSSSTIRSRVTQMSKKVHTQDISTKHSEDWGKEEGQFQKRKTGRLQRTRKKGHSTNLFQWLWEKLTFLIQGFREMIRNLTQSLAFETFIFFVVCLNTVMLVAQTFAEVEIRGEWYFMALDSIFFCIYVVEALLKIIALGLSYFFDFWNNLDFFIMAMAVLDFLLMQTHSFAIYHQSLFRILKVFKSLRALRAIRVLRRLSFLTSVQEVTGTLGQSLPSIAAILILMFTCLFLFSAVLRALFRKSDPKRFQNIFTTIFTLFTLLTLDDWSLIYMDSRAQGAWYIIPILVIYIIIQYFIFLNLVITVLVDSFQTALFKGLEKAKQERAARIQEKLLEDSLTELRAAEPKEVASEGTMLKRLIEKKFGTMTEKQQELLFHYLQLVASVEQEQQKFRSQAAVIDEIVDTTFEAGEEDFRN
Sequence of CatSper channel complex (Q96P56 whole entry): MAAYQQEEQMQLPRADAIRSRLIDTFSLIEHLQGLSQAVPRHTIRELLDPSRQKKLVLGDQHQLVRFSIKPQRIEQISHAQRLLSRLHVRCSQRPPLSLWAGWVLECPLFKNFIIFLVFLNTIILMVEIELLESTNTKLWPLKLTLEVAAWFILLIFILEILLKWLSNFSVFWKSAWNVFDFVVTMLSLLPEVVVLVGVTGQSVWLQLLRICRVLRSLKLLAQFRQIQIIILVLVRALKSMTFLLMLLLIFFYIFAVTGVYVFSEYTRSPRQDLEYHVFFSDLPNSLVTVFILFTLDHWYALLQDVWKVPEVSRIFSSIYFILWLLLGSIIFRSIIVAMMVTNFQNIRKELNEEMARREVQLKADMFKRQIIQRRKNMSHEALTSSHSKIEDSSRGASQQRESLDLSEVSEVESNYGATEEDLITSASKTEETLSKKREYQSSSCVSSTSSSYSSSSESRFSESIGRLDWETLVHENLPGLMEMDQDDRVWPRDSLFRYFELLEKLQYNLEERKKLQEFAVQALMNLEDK
Sequence of CatSper channel complex (Q7RTX7 whole entry): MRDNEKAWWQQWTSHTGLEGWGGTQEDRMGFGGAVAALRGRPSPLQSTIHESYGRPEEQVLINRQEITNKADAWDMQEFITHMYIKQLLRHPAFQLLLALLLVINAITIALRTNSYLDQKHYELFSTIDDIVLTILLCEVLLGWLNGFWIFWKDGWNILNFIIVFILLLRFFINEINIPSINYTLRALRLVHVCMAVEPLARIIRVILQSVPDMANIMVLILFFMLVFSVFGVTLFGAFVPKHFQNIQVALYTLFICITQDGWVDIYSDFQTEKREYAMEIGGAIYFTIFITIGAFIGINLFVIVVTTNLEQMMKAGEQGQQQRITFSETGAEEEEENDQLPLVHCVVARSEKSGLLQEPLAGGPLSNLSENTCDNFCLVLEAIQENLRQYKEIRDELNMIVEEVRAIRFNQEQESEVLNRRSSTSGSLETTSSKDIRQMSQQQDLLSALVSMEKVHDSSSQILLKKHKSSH
Sequence of CatSper channel complex (Q86XQ3 whole entry): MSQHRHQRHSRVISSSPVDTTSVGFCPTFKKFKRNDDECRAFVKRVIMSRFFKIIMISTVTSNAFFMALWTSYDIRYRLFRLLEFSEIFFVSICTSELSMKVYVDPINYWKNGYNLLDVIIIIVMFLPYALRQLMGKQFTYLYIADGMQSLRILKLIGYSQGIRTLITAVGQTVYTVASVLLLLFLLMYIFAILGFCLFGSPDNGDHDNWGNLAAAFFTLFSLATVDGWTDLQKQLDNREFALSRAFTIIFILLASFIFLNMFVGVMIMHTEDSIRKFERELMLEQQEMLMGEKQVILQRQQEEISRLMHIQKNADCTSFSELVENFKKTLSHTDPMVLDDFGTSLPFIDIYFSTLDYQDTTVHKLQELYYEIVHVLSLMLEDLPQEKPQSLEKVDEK

whole-cell patch clamp: 30 μM inhibits sirenin-induced ICatSper; FLIPR: 55% redu: 30 µM
SMILES: COCC(=O)O[C@]1(CCN(C)CCCc2nc3ccccc3[nH]2)CCc2cc(F)ccc2[C@@H]1C(C)C [mibefradil]
